# Reference: ChEMBL document CHEMBL1201862, “PubChem BioAssay data set” (2004)
# Active and inactive are the calls of the source.
# Assays:
# [1] = target: Potassium voltage-gated channel subfamily KQT member 2 (Rattus norvegicus, UniProt O88943); assay: potentiation of rat KCNQ2 current – cell-based, retigabine-insensitive compounds, dose response (AID 2654); assay type: functional
# [2] = target: T1, Trace amine-associated receptor 1 (Homo sapiens, UniProt Q96RJ0); assay: Counterscreen for agonists of the human trace amine associated receptor 1 (hTAAR1): Fluorescence-based cell-based high throughput dose response assay to identify hTAAR1 agonist that also desensitize TAAR1 receptor response.; assay type: functional
# T1 sequence (Q96RJ0 whole entry): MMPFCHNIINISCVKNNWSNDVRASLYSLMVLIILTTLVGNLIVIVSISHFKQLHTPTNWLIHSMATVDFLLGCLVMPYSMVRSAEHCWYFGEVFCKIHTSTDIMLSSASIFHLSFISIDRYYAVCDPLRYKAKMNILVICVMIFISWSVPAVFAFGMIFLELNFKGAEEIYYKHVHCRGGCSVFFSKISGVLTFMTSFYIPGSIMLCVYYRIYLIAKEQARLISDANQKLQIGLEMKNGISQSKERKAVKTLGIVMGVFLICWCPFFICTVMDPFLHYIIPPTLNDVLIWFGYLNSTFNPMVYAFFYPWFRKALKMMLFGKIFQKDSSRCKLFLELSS
# [3] = cells; assay type: functional, cell-based
# [4] = target: T1, Trace amine-associated receptor 1; assay: Fluorescence-based cell-based high throughput dose response assay to identify agonists of the human trace amine associated receptor 1 (TAAR1).; assay type: functional
# [5] = cells; assay type: functional, cell-based; remark: listed apart in the source
# [6] = target: T2, Neuropeptide Y receptor type 1 (Homo sapiens, UniProt P25929); assay: Fluorescence-based dose response cell-based high-throughput screening assay for agonists of NPY-Y1. [Related pubchem assays: 1697 (Screening assay (NPY-Y1 agonists).), 1359 (Screening assay (NPY-Y2 potentiators or agonists).), 1304 (Screening assay (NPY-Y1 potentiators or agonists).), 1704 (Screening assay (CNGC inhibitors).), 1791 (Summary AID.)]; assay type: functional
# [7] = target: T3, Neuropeptide Y receptor type 2 (Homo sapiens, UniProt P49146); assay: Fluorescence-based counterscreen for agonists of NPY-Y1: cell-based high-throughput dose response assay for agonists of NPY-Y2.; assay type: functional
# [8] = test system: HEK293; assay: Fluorescence-based counterscreen for potentiators or agonists of NPY-Y1: cell-based high-throughput dose response assay for inhibitors of cyclic nucleotide gated ion channel (CNGC) activity. In this assay, the parental HEK293 cell line transfected with a cyclic-nucleotide gated ion channel (CNGC)-based cAMP sensor is used to measure inhibition of isoproterenol-induced CNGC …; assay type: functional; conditions: Homo sapiens
# [9] = Luminescence Cell-Based Dose Confirmation HTS to Identify Inhibitors of Platelet Dense Granule Release. [Related pubchem assays: 1663 (Primary HTS), 1678 (Summary of Project)]; assay type: functional
# [10] = test system: HeLa; assay: viability loss in HeLa cells – cell-based, 24 h, cherry-picked samples, cytotoxicity control, dose response (AID 504726); assay type: functional; conditions: Homo sapiens;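 further: potency for cytotoxicity as loss of luminescence signal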
# [11] = Fluorescence Cell-Based Dose Response to Identify Inhibitors of Thrombin Receptor-Activating Peptide SFLLRN-Mediated P-Selectin Induction on Platelets. [Related pubchem assays: 1663 (Primary HTS), 1889 (retest at dose ), 1891 (counterscreen), 1678 (Project Summary)]; assay type: functional
# [12] = test system: Streptococcus; assay: GAS UMAA2166 growth inhibition – luminescence, BacTiterGlo, counter-screen for streptokinase expression inhibitor project, dose response (AID 1915); assay type: functional, organism-based;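 further: potency for reduction of bacterial viability or growth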
# [13] = test system: Streptococcus sp. 'group A'; assay: Streptococcus pyogenes SK(-)GAS viability under kanamycin – luminescence, BacTiterGlo, confirmation, counter-screen for streptokinase expression inhibitor project, dose response (AID 1900); assay type: functional, organism-based
# [14] = target: T4, Eukaryotic translation initiation factor 2-alpha kinase 3 (Homo sapiens, UniProt Q9NZJ5); assay: Dose response cell-based high-throughput screening assay to measure PERK inhibition. [Related pubchem assays: 1416 ]; assay type: functional
# [15] = target: T3, Neuropeptide Y receptor type 2; assay: Fluorescence-based cell-based high-throughput dose response assay for agonists of NPY-Y2. [Related pubchem assays: 1703 (Screening assay (CNGC inhibitors).), 1359 (Screening assay (NPY-Y2 potentiators or agonists).), 1304 (Screening assay (NPY-Y1 potentiators or agonists).), 1710 (Screening assay (NPY-Y2 agonists).), 1791 (Summary AID.)]; assay type: functional
# [16] = test system: HEK293; assay: Fluorescence-based counterscreen for potentiators or agonists of NPY-Y2: cell-based high-throughput dose response assay to identify inhibitors of cyclic nucleotide gated ion channel (CNGC) activity. In this assay, the parental HEK293 cell line transfected with a cyclic-nucleotide gated ion channel (CNGC)-based cAMP sensor is used to measure inhibition of isoproterenol-induced CNGC activity by test compound.; assay type: functional; conditions: Homo sapiens
# [17] = target: T4, Eukaryotic translation initiation factor 2-alpha kinase 3; assay: Counterscreen assay for PERK inhibitors: Dose response cell-based high throughput screening assay to measure inhibition of PERK at 6 hours. [Related pubchem assays: 1522, 1416 ]; assay type: functional
# [18] = target: T2, Neuropeptide Y receptor type 1; assay: Fluorescence-based counterscreen for agonists of NPY-Y2: cell-based high-throughput dose response assay for agonists of NPY-Y1.; assay type: functional
# [19] = target: Dual specificity protein phosphatase 3 (Homo sapiens, UniProt P51452); assay: inhibition constants for human DUSP3 – biochemical, colorimetric, SAR follow-up (AID 2004)
# Chain of Dual specificity protein phosphatase 3 (P51452 whole entry): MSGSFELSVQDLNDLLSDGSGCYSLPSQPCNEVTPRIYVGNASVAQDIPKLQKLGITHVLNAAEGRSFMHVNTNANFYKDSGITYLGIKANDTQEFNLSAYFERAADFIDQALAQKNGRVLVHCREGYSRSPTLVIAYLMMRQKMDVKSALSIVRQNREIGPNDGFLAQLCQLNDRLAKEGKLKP
# T3 sequence (P49146 whole entry): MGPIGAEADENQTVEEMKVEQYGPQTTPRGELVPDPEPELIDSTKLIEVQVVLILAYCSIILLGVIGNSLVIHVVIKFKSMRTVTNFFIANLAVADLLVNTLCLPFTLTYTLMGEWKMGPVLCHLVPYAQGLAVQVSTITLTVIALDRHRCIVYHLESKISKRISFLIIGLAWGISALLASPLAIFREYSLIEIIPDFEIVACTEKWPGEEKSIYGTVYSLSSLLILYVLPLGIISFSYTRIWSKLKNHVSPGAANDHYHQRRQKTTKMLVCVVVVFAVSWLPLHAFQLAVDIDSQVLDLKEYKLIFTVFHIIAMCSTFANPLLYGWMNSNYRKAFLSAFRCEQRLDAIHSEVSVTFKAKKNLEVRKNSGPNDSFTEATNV
# T4 sequence (Q9NZJ5 whole entry): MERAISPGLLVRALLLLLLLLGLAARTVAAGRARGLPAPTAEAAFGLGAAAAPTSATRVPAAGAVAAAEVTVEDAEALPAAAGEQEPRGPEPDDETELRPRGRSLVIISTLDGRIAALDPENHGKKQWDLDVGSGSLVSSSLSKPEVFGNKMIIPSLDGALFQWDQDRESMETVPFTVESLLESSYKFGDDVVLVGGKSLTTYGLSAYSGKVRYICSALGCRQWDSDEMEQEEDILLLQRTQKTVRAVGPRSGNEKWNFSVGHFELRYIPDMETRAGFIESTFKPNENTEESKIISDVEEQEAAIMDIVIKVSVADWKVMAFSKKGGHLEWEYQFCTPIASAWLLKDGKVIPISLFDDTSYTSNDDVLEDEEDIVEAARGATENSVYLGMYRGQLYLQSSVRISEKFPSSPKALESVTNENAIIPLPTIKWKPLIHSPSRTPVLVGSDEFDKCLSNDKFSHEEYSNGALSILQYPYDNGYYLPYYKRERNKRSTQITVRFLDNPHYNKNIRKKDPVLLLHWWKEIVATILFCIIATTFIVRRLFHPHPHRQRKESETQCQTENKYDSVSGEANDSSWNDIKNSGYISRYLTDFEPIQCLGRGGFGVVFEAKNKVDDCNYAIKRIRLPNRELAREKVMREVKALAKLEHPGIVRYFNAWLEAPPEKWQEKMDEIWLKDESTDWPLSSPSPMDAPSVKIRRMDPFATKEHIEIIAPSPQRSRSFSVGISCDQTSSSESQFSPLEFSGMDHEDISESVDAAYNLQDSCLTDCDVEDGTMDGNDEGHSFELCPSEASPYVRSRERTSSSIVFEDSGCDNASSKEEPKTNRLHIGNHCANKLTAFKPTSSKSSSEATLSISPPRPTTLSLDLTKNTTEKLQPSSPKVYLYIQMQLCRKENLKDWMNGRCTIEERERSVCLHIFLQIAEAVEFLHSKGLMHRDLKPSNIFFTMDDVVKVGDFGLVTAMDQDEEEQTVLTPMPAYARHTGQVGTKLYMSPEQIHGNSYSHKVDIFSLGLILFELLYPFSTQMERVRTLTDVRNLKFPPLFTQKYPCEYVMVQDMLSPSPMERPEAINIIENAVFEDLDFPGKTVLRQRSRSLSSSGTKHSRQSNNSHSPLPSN
# T2 sequence (P25929 whole entry): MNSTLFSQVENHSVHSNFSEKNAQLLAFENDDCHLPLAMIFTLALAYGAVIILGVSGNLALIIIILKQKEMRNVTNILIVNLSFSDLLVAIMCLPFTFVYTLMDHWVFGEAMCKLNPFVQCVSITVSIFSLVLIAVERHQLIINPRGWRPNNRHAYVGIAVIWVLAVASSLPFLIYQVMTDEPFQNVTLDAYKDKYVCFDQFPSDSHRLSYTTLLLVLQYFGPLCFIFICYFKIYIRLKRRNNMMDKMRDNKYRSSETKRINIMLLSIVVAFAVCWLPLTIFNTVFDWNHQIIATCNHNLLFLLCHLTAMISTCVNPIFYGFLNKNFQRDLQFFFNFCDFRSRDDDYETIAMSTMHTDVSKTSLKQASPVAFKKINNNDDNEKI
# Chain of Potassium voltage-gated channel subfamily KQT member 2 (O88943 whole entry): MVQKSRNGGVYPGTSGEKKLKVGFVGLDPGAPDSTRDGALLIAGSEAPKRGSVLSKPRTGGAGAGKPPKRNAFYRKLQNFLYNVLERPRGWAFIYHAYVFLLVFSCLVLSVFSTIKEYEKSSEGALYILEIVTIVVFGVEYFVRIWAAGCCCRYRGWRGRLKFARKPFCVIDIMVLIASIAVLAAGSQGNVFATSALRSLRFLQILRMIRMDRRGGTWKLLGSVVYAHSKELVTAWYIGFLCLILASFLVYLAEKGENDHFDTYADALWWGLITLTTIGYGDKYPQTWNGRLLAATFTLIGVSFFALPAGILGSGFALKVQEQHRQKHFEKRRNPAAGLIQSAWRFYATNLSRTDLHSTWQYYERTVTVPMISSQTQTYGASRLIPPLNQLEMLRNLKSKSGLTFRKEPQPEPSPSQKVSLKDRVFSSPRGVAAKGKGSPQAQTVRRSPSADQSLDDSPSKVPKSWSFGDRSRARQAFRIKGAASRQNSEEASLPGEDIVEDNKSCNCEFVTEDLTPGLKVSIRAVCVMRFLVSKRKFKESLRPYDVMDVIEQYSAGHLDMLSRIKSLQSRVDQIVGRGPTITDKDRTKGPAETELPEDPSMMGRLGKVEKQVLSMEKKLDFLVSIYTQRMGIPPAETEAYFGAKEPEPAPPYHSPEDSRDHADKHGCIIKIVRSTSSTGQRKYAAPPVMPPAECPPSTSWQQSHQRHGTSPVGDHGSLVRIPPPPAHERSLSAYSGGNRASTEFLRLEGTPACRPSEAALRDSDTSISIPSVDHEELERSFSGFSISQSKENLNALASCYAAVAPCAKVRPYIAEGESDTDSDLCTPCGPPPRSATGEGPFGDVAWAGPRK
smiles,measurement,setting,value
O=C(Nc1cccnc1)Nc1cccc(F)c1,EC50,[1],6.28 µM (active)
same,IC50,[2],5.05 µM (active)
same,IC50,[3],> 29.9 µM (inactive)
same,EC50,[4],0.675 µM (active)
same,EC50,[5],> 29.9 µM (inactive)
Cc1ccccc1OCC(O)CN1CCN(CC(O)COc2ccccc2C)CC1 (centres undefined),EC50,[6],> 35.4 µM (not active)
same,EC50,[7],> 35.4 µM (not active)
same,IC50,[8],12 µM (not active)
Oc1nc2c(s1)C=Nc1ccccc1N2,EC50,[9],1.17 µM (active)
same,AC50,[10],71.5 µM (active)
same,EC50,[11],< 0.3 µM (active)
same,EC50,[12],> 150 µM (not active)
same,EC50,[13],> 150 µM (not active)
COCCOC(=O)C(CC(=O)O)NCc1ccco1 (centres undefined),EC50,[14],> 55.7 µM (not active)
same,EC50,[15],> 35.4 µM (not active)
same,EC50,[16],> 35.4 µM (not active)
same,EC50,[17],> 55.7 µM (not active)
same,EC50,[18],> 35.4 µM (not active)
CC(C)=C1C(=O)NN(c2ccccc2)C1=O,Ki,[19],71 µM (inactive)
